Results published in US7244847B2, “Benzimidazole compounds” (Isis Pharmaceuticals, Inc., priority 2002, dated 2007).
≈ marks a conversion by molar mass, not a printed value. Read-outs that look alike come from different tables or passages of the source.

Assays:
[1] = system: Bacterial Transcription/Translation; experiment: bacterial transcription/translation assay (pBestLuc luciferase, E. coli S30 extract); format: biochemical
Procedure: This series of assays is known to those of skill in the art, and other assays may be substituted therefore without deviating from the spirit and scope hereof. The DNA template, pBestLuc™ (Promega), is a plasmid containing a reporter gene for firefly luciferase fused to a strong tac promoter and ribosome binding site. Messenger RNA from 1 μg pBestLuc is transcribed and translated in E. coli S30 bacterial extract in the presence or absence of test compound. Compounds are tested in a black 96 well microtiter plate with an assay volume of 35 μL. […] The transcription/translation reaction is incubated for 35 minutes at 37° C. followed by detection of functional luciferase with the addition of 30 μL LucLite™ (Packard). Light output is quantitated on a Packard TopCount.

E. coli [2] = experiment: MIC assay of Example 20, E. coli; format: cell-based; details: Tables 4-7
Procedure: (§1) The assays are carried out in 150 μL volume in duplicate in 96-well clear flat-bottom bottom plates. The bacterial suspension from an overnight culture growth in appropriate medium is added to a solution of test compound in 4% DMSO in water. Final bacterial inoculum is approximately 10^5-10^6 CFU/well. The percent growth of the bacteria in test wells relative to that observed for a well containing no compound is determined by measuring absorbance at 595 nm (A595) after 24 h. The MIC is determined as a range of single compound where the complete inhibition of growth is observed at the higher concentration and cells are viable at the lower concentrations. Both ampicillin and tetracycline are used as antibiotic-positive controls in each screening assay for S. pyogenes, E. coli, S. aureus, E. faecalis, K. pneumoniae and P. vulgaris; . Ciprofloxacin is used as an antibiotic positive control in each screening assay for P. aeruginosa.

S. aureus [3] = experiment: MIC assay of Example 20, S. aureus; format: cell-based; details: Tables 4-7
Procedure: as §1

Ag IIa HCV IRES Target = experiment: MASS screening against Ag IIa HCV IRES target; format: binding; details: target conc. […], ligand conc. 50 μM; for Selectivity: by mass spectral analysis
Procedure: A series of 2-aminobenzimidazole dimers were synthesized according to the procedure described in Example 11. A series of 5- and 6-substituted-2-aminobenzimidazoles also were synthesized, and all were evaluated for biological activity. Tables 4-7 report MIC and transcription/translation activity for the dimer compounds By the outlined procedure. Tables 8 and 9 report the MASS screening of 2-aminobenzimidazoles against the AgIIa HCV-IRES target. The reported selectivity was determined by mass spectral analysis of any associations and provides information about the relative binding affinities.

S. aureus [4] = experiment: in vitro antibacterial activity (MIC) against S. aureus; format: cell-based; details: Staphylococcus aureus; Tables 1 and 2
Procedure: (§2) Compounds were evaluated for in vitro antibacterial activity (referred to MIC, the minimum concentration inhibiting fungal cell growth) against S. aureus and E. coli. […] The assays are carried out in 150 mL volume in duplicate in 96-well clear flat-bottom plates. […] Final bacterial or yeast inoculum is approximately 10^2-10^3 CFU/well. […] (bacteria) or 40-48 hours (yeast) at 25° C. The MIC is determined as a range of concentration where complete inhibition of growth is observed at the higher concentration and bacterial/yeast cells are viable at the lower concentration. Ampicillin and tetracycline are used as antibiotic positive controls for bacterial MIC assays.
(§3) The assays are carried out in 150 μL volume in duplicate in 96-well clear flat-bottom plates. […] Final bacterial or yeast inoculum is approximately 10^2-10^3 CFU/well. […] (bacteria) or 40-48 hours (yeast) at 25° C. The MIC is determined as a range of concentration where complete inhibition of growth is observed at the higher concentration and bacterial/yeast cells are viable at the lower concentration. Ampicillin and tetracycline are used as antibiotic positive controls for bacterial MIC assays.

E. coli [5] = experiment: in vitro antibacterial activity (MIC) against E. coli; format: cell-based; details: Escherichia coli; Tables 1 and 2
Procedure: as §2, §3

E. coli 16S A-site [6] = experiment: MS-based assay of binding affinity for 16S RNA A-site
Text: It has been established that the 16S A-site is involved in bacterial translation, and the aminoglycosides are known to bind to the region. Thus, the bacterial 16S A-site represents a prime target for discovering antibacterial agents, and much work has focused on the modification of the natural aminoglycosides. […] These are shown below in Scheme 17. [drawing 31]
The synthesis of compound 1 and piperidine-modified benzimidazoles are shown above in Scheme 17.
A series of benzimidazole-modified analogs were prepared as shown above. The procedure required the simple heating of a suitable 1,2-dianiline (8) with isonipecotic acid (9) in the presence of polyphosphoric acid.

E. coli 16S A-site [7] = experiment: MS-based competition experiments to determine the binding location; details: competition of 1 with glucosamine
Text: MS-based competition experiments were used to determine the binding location of 1 to the target RNA. Glucosamine is the A-ring of paromomycin that is known to bind to the target RNA and inhibits bacterial translation.

[8] = Tables 4-7, read-out: Transcription/Translation, IC50

With `CN(CCCn1c(N)nc2ccccc21)CCCn1c(N)nc2ccccc21` the IC50 [1, 8] was 25 µM, the MIC (E. coli [2]; Escherichia coli) was 25 to 50 µM (≈ 9.44 to 18.9 µg/mL) and the MIC (S. aureus [3]; Staphylococcus aureus) was 75 to 100 µM (≈ 28.3 to 37.7 µg/mL).
With `CN(CCCn1c(N)nc2cc(Br)ccc21)CCCn1c(N)nc2cc(Br)ccc21` the IC50 [1, 8] was > 100 µM, the MIC (E. coli [2]; Escherichia coli) was 25 to 50 µM (≈ 13.4 to 26.8 µg/mL) and the MIC (S. aureus [3]; Staphylococcus aureus) was 25 to 50 µM (≈ 13.4 to 26.8 µg/mL).
`Cc1ccc2nc(N)n(CCCN(C)CCCn3c(N)nc4ccc(C)cc43)c2c1` was tested, and the IC50 [1, 8] was 6 to 12 µM, the MIC (E. coli [2]; Escherichia coli) was > 100 µM and the MIC (S. aureus [3]; Staphylococcus aureus) was > 100 µM.
With `COC(=O)c1ccc2c(c1)nc(N)n2CCCN(C)CCCn1c(N)nc2cc(C(=O)OC)ccc21` the IC50 [1, 8] was > 100 µM, the MIC (E. coli [2]; Escherichia coli) was > 200 µM and the MIC (S. aureus [3]; Staphylococcus aureus) was > 200 µM.
In the case of `CN(CCCn1c(N)nc2cc(C(F)(F)F)ccc21)CCCn1c(N)nc2cc(C(F)(F)F)ccc21`, the IC50 [1, 8] is reported as > 100 µM, the MIC (E. coli [2]; Escherichia coli) is reported as 25 to 50 µM (≈ 12.8 to 25.7 µg/mL) and the MIC (S. aureus [3]; Staphylococcus aureus) is reported as 50 to 100 µM (≈ 25.7 to 51.3 µg/mL).
`CN(CCCn1c(N)nc2cc(C#N)ccc21)CCCn1c(N)nc2cc(C#N)ccc21` was tested, and the IC50 [1, 8] was > 200 µM, the MIC (E. coli [2]; Escherichia coli) was > 200 µM and the MIC (S. aureus [3]; Staphylococcus aureus) was > 200 µM.
With `CN(C)CCCn1c(N)nc2cc(CN)ccc21` [CH2NH2] the “% Complex” value (Ag IIa HCV IRES Target) was 109%, the “% Dimer” value (Ag IIa HCV IRES Target) was 80% and the Selectivity (Ag IIa HCV IRES Target) was 2.3.
`Cc1ccc2nc(N)n(CCCN(C)C)c2c1` [CH3] was tested, and the “% Complex” value (Ag IIa HCV IRES Target) was 136%, the “% Dimer” value (Ag IIa HCV IRES Target) was 31% and the Selectivity (Ag IIa HCV IRES Target) was 6.55.
With `CC(C)(C)OC(=O)N1CCC(c2nc3cc(Cl)c(Cl)cc3n2Cc2ccc(CBr)cc2)CC1` [Compound 4g] the IC50 ([1]; Tables 1 and 2, bacterial transcription/translation, read-out: T/T IC50 MIC) was > 100 µM, the MIC (S. aureus [4]) was 52 µM (≈ 28.8 µg/mL) and the MIC (E. coli [5]) was > 100 µM.
With `CC(=O)N1CCC(c2nc3cc([N+](=O)[O-])ccc3[nH]2)CC1` [Compound 7a] the “binding affinity for 16S RNA A-site, in words” value (“binding affinity” below) (E. coli 16S A-site [6]) was “diminished the binding affinity”.
With `Cc1ccc2[nH]c(C3CCNCC3)nc2c1` [Compound 10b] the “binding affinity” value (E. coli 16S A-site [6]) was “tolerated”.
With `Clc1ccc2[nH]c(C3CCNCC3)nc2c1` [Compound 10d] the “binding affinity” value (E. coli 16S A-site [6]) was “tolerated”.
In the case of `c1cnc2nc(C3CCNCC3)[nH]c2c1` [Compound 10j], the “binding affinity” value (E. coli 16S A-site [6]) is reported as “reduced activities”.
For `CN(C)CCCn1c(N)nc2ccccc21` [H], the “% Complex” value (Ag IIa HCV IRES Target) was 125%, the “% Dimer” value (Ag IIa HCV IRES Target) was 35% and the Selectivity (Ag IIa HCV IRES Target) was 4.30.
With `CN(C)CCCOc1ccc2nc(N)n(CCCN(C)C)c2c1` [O(CH2)3N(CH3)2] the “% Complex” value (Ag IIa HCV IRES Target) was 862%, the “% Dimer” value (Ag IIa HCV IRES Target) was 72% and the Selectivity (Ag IIa HCV IRES Target) was 96.88.
With `COc1ccc2nc(N)n(CCCN(C)C)c2c1` [OCH3] the “% Complex” value (Ag IIa HCV IRES Target) was 286%, the “% Dimer” value (Ag IIa HCV IRES Target) was 39% and the Selectivity (Ag IIa HCV IRES Target) was 10.67.
`CN(CCn1c(N)nc2cc(Cl)c(Cl)cc21)CCn1c(N)nc2cc(Cl)c(Cl)cc21` [X = Cl] was tested, and the IC50 [1, 8] was > 100 µM, the MIC (E. coli [2]) was >100 µM and the MIC (S. aureus [3]) was >100 µM.
`CN(CCn1c(N)nc2ccccc21)CCn1c(N)nc2ccccc21` [X = H] was tested, and the IC50 [1, 8] was > 100 µM, the MIC (E. coli [2]) was >100 µM and the MIC (S. aureus [3]) was >100 µM.
`CN(CCCn1c(N)nc2cc(Cl)c(Cl)cc21)CCCn1c(N)nc2cc(Cl)c(Cl)cc21` [X = N—Me] was tested, and the IC50 [1, 8] was 25 µM, the “MIC, E. coli” value (E. coli [2]) was 25 to 50 µM and the “MIC, S. aureus” value (S. aureus [3]) was 75 to 100 µM.
For `CN(CCCn1c(N)nc2cc(Cl)c(Cl)cc21)CCCn1c(N)nc2cc(Cl)c(Cl)cc21` [drawing 35], the IC50 [1, 8] was > 100 µM, the MIC (E. coli [2]; Escherichia coli) was 12 to 25 µM (≈ 6.18 to 12.9 µg/mL) and the MIC (S. aureus [3]; Staphylococcus aureus) was 12 to 25 µM (≈ 6.18 to 12.9 µg/mL).
In the case of `CN(C)CCCn1c(N)nc2ccccc21` [drawing 42], the IC50 [1, 8] is reported as > 100 µM, the MIC (E. coli [2]; Escherichia coli) is reported as > 50 µM and the MIC (S. aureus [3]; Staphylococcus aureus) is reported as > 50 µM.
For `N[C@H]1C(O)O[C@H](CO)[C@@H](O)[C@@H]1O` (some centres unmarked) [glucosamine], the “binding site on the target RNA (competition), in words” value (E. coli 16S A-site [7]) was “compete for the same binding site”.
